Consider 3 molecules from the NIST ThermoML archive (doi:10.1007/s10765-016-2104-7).

Structures are written as SMILES. Numbers after ± are expanded uncertainties.

The conditions of the series: Liquid, Vibrating wire viscometry.

The viscosity is the internal friction of a fluid under shear. For the molecule `[Sn]` [tin], the viscosity reads like this: (873 K) 1.253 ± 0.2 mPa·s; (973 K) 1.142 ± 0.3 mPa·s; (1073 K) 1.087 ± 0.047 mPa·s.
As for `[Ag]` [silver], the viscosity is, setting by setting: (1273 K) 3.52 ± 0.74 mPa·s; (1323 K) 2.904 ± 0.45 mPa·s; (1373 K) 2.812 ± 0.65 mPa·s; (1423 K) 2.649 ± 0.33 mPa·s; (1473 K) 2.54 ± 0.22 mPa·s; (1523 K) 2.498 ± 0.46 mPa·s. The viscosity (1573 K) worked out at 2.399 ± 0.35 mPa·s, the viscosity (1623 K) stood at 2.332 ± 0.39 mPa·s and the viscosity (1673 K) was 2.214 mPa·s.
For `[Au]` [gold], the viscosity (1373 K) was 5.625 ± 0.65 mPa·s; the viscosity (1423 K) is 5.47 ± 0.16 mPa·s; the viscosity (1473 K) is 4.963 ± 0.36 mPa·s; the viscosity (1523 K) is reported as 4.764 ± 0.25 mPa·s; the viscosity (1573 K) is 4.495 ± 0.32 mPa·s; the viscosity (1623 K) stood at 4.276 ± 0.51 mPa·s. The viscosity (1673 K) is 3.981 ± 0.57 mPa·s.
